Consider three compounds from US10005733B2, “N-(4-hydroxy-4-methyl-cyclohexyl)-4-phenyl-benzenesulfonamide and N-(4-hydroxy-4-methyl-cyclohexyl)-4-(2-pyridyl)-benzenesulfonamide compounds and their therapeutic use” (PIMCO 2664 LIMITED, priority 2014, dated 2018).

For data set [1], the system named is human primary osteoclasts. As to the kind of experiment: Human Primary Osteoclastogenesis (TRAP-positive multinucleated cells from CD14+ monocytes). It counts as cell-based. The following applies: 1 μM; compound added on Day 4 of monocyte differentiation. Here is the method: In vitro potency of test compounds was determined by incubating them with human primary monocytes and assessing effects on the formation of mature osteoclasts.
The activity of the compounds in reducing the formation of human primary osteoclasts (osteoclastogenesis) was tested using monocytes derived from human whole blood. Monocytes, which are positive for the cell surface marker CD14, are part of the innate immune system found in the circulation. Peripheral blood monocytes differentiate to form several cell types, including osteoclasts. Human primary osteoclasts were […] macrophage colony-stimulating factor (M-CSF) and RANKL+10% foetal calf serum for approximately 6 days, with the exact duration depending on the individual donor of the cells.
When monocytes are cultured under the conditions described above, they form large, multinucleated cells (osteoclasts), which stain positively for tartrate-resistant acid phosphatase (TRAP). TRAP staining was performed between Days 5-6 of culture depending on the individual donor. Osteoclasts are identified as cells which stain positive for TRAP and contain more than 3 nuclei. Compounds which reduce the number of TRAP-positive cells reduce the formation of osteoclasts. The bisphosphonate compound, alendronate, which is used in the treatment of osteoporosis, is used as a positive control for reducing osteoclastogenesis in this assay.
Effects on osteoclast formation were assessed by staining for TRAP and counting cells containing more than three nuclei in each well under a microscope. This allows the absolute determination of cell number in each treated well.
PBMCs (peripheral blood mononuclear cells) were collected from healthy donors and isolated by centrifugation on a layer of Ficoll Paque (GE Healthcare, UK). Monocytes were then sorted from the PBMCs using an autoMACS Pro Separator (MiltenyiBiotec), which sorts cells depending on the markers present on their cell surface. The resulting CD14+ monocytes were resuspended in αMEM supplemented with 10% FCS, 25 ng/mL M-CSF and 100 ng/ml RANKL and added to a 48-well plate, which was then incubated for up to 6 days at 37° C./5% CO2. […] The medium was replenished every 2 days.
At the end of the culture period, the medium was removed from the cells and the cells were fixed at room temperature and then washed with phosphate-buffered saline. TRAP staining solution was then added and the cells incubated at 37° C. until a red colour had developed, after which the reaction was stopped by rinsing with water. The stained cells were air-dried and then photographed using a conventional microscope and the TRAP-positive multinucleated osteoclasts counted by two independent observers.
The average results (n=6) for each concentration of test compound were averaged between the two observers and then expressed as a fold change versus the average control value. The data were then plotted graphically using software from Grafit (Erithacus Software).

Data set [2] relates to J774 macrophages. Kind of data set: Resazurin Macrophage J774 Viability Assay. It counts as cell-based. The following applies: Mus musculus, J774, 72 h; footnote (1): 10 point range 30 μM to 1.5 nM, n = 3 per concentration, Grafit; 72 hour incubation. Here is the method:
Potency was assessed using a viability assay based on the survival of the J774 macrophage cell line. Macrophages are closely related to osteoclasts and have been used previously as a model system for osteoclast survival (see, e.g., Luckman et al., 1998, “Heterocycle-containing bisphosphonates cause apoptosis and inhibit bone resorption by preventing protein prenylation: evidence from structure-activity relationships in J774 macrophages,” J. Bone Miner. Res., Vol. 13, pp. 1668-1678). The model is indicative both of effects on bone protection in diseases such as osteoporosis, osteoarthritis and rheumatoid arthritis, and of effects on inflammation since, like osteoclasts, J774 macrophages are dependent for survival on continued NFκB activation.
In vitro potency of test compounds was determined by incubation with J774 macrophages and subsequent determination of cell viability using resazurin.
Resazurin is a redox dye commonly used as an indicator of viability in cultured cells (see, e.g., Anoopkumar-Dukie, 2005, “Resazurin assay of radiation response in cultured cells”, British Journal of Radiology, Vol. 78, pp. 945-947). It is non-toxic to cells and stable in culture medium, allowing continuous measurement of cell proliferation in vitro as either a kinetic or endpoint assay. The assay is based on the ability of viable, metabolically-active cells to reduce resazurin (which is blue and non-fluorescent) to resorufin and dihydroresorufin (which are red and fluorescent) using electrons from reducing species, such as nicotinamide […] and flavin adenine dinucleotide (FADH). This transformation, from oxidised form to reduced form, can be measured either colorimetrically or fluorometrically. Insults that impair cell viability and proliferation also affects the capacity of cells to reduce resazurin, and the rate of dye reduction is directly proportional to the number of viable cells present.
For fluorescence measurements, 530-560 nm excitation and 590 nm emission wavelengths are typically used. For colorimetric measurements, absorbance at 570 nm (reduced form) and 600 nm (oxidised form) is typically measured. A simple calculation is performed to determine the relative quantities of the two species: a high ratio of resorufin (the reduced form) to resazurin (the oxidised form) is an indicator that cells are proliferating and viable. A low ratio indicates cells that are quiescent or non-viable.
J774 cells were plated at 10^4 cells per well in 100 μL αMEM (α Modified Eagle Medium) in 96-well plates and allowed to adhere overnight. The following day, test compounds were prepared as 100 mM solutions in DMSO. These stock solutions were diluted in DMSO and then diluted 1000× in culture medium (αMEM) before being added directly to the wells so as to give the desired final compound concentration. After a 72 hour incubation at 37° C./5% CO2, resazurin (Alamar Blue, Biosource International) was added to each well (1:10 v/v, 10 μL). The plate was then incubated at 37° C. for 3 hours and fluorescence was measured at 590 nm, with a 25 nm bandwidth.
The average results for each test compound were expressed as a percent (%) of the average control value reflecting cell viability. The average values across the concentrations tested were then plotted and an IC50 was calculated by fitting the data to a 4-parameter IC50 equation using either Graph Pad Prism software for Windows (Graph Pad Software, San Diego Calif. USA) or Grafit version 5 (Erithacus Software). Each experiment was repeated twice and the data are presented as the mean IC50 from both experiments.
A general note: The colour change of resazurin is a common sign of viable cells or microbes.

Data set [3] can be described thus: Rodent Pharmacokinetics Studies. It counts as in vivo, rat. The note with it: male Han Wistar rats; for i.v. AUC: 1 mg/kg intravenous, 5% DMSO/10% solutol in saline; for bioavailability: rat, plasma, 5 mg/kg, oral in 0.5% CMC/0.1% Tween-80, i.v. in 5% DMSO/10% solutol in saline, read-out: Bioavail, F (%). Here is the method: Absorption and metabolic stability were studied using an in vivo pharmacokinetics assay.
[…] […] For compound HMC-C-01-A the oral administration was formulated in 2% dimethylacetamide/20% hydroxypropyl-β-cyclodextrin in water. Animals were given free access to food throughout the study except for fasting overnight and until 2 hours post dose on the day of dosing.
Blood samples were taken from the retro-orbital plexus at the following time points and placed in microtubes containing 20% K2EDTA solution: […]
Blood samples were centrifuged to obtain plasma, which was transferred to a separate container and frozen at −20° C.
For analysis, samples were thawed at room temperature and prepared by protein precipitation with acetonitrile spiked with internal standard (500 ng/mL glipizide) in the ratio 1:4 with plasma. The samples were then vortexed for 5 minutes and centrifuged for 10 minutes at 20,600×g at 4° C. 100 μL of the supernatant was collected for analysis.
The pharmacokinetic parameters for the test compounds were calculated by Phoenix WinNonlin version 6.3 (Pharsight Corp, CA) using standard non-compartmental methods. Peak plasma concentrations (Cmax) and time of the peak plasma concentration (Tmax) were the observed values. The area under the plasma concentration-time curve (AUC) was determined by use of the linear trapezoidal rule up to the last measurable concentration (AUClast) and thereafter by extrapolation of the terminal elimination phase to infinity (AUCinf). The terminal elimination rate constant (kel) was determined by regression analysis of the linear terminal portion of the log plasma concentration-time curve. The elimination phase half-life (t1/2) was calculated as 0.693/kel.

Setting [4] is: 5 mg/kg orally, 0.5% CMC/0.1% Tween-80.

SMILES strings stand for the structures.

Broadly, the IC50 is the concentration at which inhibition is half-maximal. Read a low IC50 as greater potency.

Take `NCCCC(O)(P(=O)(O)O)P(=O)(O)O` [Alendronate, alendronate]: the “% reduction at 1 μM” value in data set [1] is reported as 12%.
`Cc1cc(S(=O)(=O)NC2CCC(C)(O)CC2)ccc1-c1ccc(F)cc1F` (single isomer, unassigned) [REF001, reference compound] displayed an IC50 in data set [2] of 50 nM. In data set [3], the “i.v. AUC” value is recorded as 963 ng/mL/min and the bioavailability was 50%. In addition, the “p.o. AUC (ng/mL/min)” value in data set [3] (setting [4]) is given as 4766 ^(4) ng/mL/min.
Take `O=S(=O)(N[C@H]1CC[C@H](O)CC1)c1ccc(-c2ncc(Cl)cc2Cl)cc1` [ABD836, reference compound]: the IC50 in data set [2] came to 1450 nM. In data set [3], the “i.v. AUC” value amounted to 2142 ng/mL/min and the bioavailability is 55%. Also, the “p.o. AUC” value in data set [3] (setting [4]) was found to be 5927 ng/mL/min.
